From patent US20070167492A1, “Molluscicidal agents” (priority 2003, published 2007)

How the values were obtained:
[1] = tested on: Winter wheat (Kampa race) seeds; test: Seed germination test of treated winter wheat seeds (rolled in paper); assay type: in vivo; details: 3x50 seeds, 6 days at 22° C.
Procedure: (§1) Winter wheat (Kampa race; thousand grain weight of 51 grams) was used in an experiment to test the efficacy of the compositions of the present inventions in relation to known molluscicidal compounds. The seeds were disinfected for soil and germ moulds with 2 ml of Beret Gold (comprising 25 g/l of the fungicide fludioxonil) per kg of seed.
(§2) Sepiret® was added to all dry disinfections, and is the coating that was added to all agents of which the formulation was not suitable for coating.
Table 2 provides an overview of the amounts of diluent water and Sepiret® used for treating the wheat seeds. Table 2 further provides the quality of the coating and the percentages of germinating seeds in a seed germination test. In this test, the percentage of germination of 3×50 seeds, rolled in paper, was determined after 6 days at 22° C. (continuously) and a 16 hours light regime.

[2] = tested on: Deroceras reticulatum (grey field slug); test: Example 1: pot test, treated winter wheat seed with 5 adult slugs per pot, 14 days; assay type: in vivo
Procedure: as §1, §2
The seeds were sown in earthenware pots with an internal diameter of 20 cm and a height of 18 cm, filled with 7 cm of potting soil (Trio BV, Weesp, The Netherlands) and with a top 2 cm of white quartz sand. A total of 40 seeds was placed in each pot, in a pattern of concentric circles on top of the quartz sand, the germ facing upwards. To each pot a total of 5 adult specimens of the test slug Deroceras reticulatum (grey field slug) were added. The pots were incubated at ±15° C. with a relative humidity of ±90% and light regime of ±12 hours light/12 hours dark, without artificial lighting. The pots were not irrigated overhead. In total, 4 parallel tests were performed for each test.
Following the addition of the slugs, the number of damaged seeds was counted after 2, 3, 7, 10 and 14 days. The number of plants present (germinated and not eaten or damaged by the slugs) was determined 3, 7, 10 and 14 days after the start of the test. […] The number of dead slugs was counted 2, 3, 7, 10 and 14 days after the start of the test (but not removed). Finally, on days 3, 7, 10 and 14 after the start of the test, the number fecal pellets was counted.
The data were statistically analysed by using F-tests (α=0.05) and pair-wise Student-tests.

[3] = 2 ml formulated per kg seed, 2 days after sowing
[4] = 2 ml formulated per kg seed, 3 days after sowing
[5] = 2 ml formulated per kg seed, 7 days after sowing
[6] = 2 ml formulated per kg seed, 10 days after sowing
[7] = 2 ml formulated per kg seed, 14 days after sowing
[8] = 10 ml formulated per kg seed, 2 days after sowing
[9] = 10 ml formulated per kg seed, 3 days after sowing
[10] = 10 ml formulated per kg seed, 7 days after sowing
[11] = 10 ml formulated per kg seed, 10 days after sowing
[12] = 10 ml formulated per kg seed, 14 days after sowing

CC=C(C)C(=O)OC1CC(OC(C)=O)C2(C(=O)OC)COC3C2C12COC(O)(C(=O)OC)C2C(C)(C12OC1(C)C1CC2OC2OC=CC21O)C3O (centres unmarked) [azadirachtine]
Percentage germinated ([1]; 2 ml formulated per kg seed): 90% | Percentage germinated ([1]; 10 ml formulated per kg seed): 65% | number of utilizable plants after 14 days ([2]; 2 ml formulated per kg seed): 0.8 | percentage of damaged seeds after 14 days ([2]; 2 ml formulated per kg seed): 95% | Mean number of damaged seeds per pot [2, 3]: 5.8 | Mean number of dead slugs per pot [2, 3]: 0.3 | Mean number fecal pellets per pot [2, 4]: 62 | Mean number of damaged seeds per pot [2, 4]: 20.8 | Mean number of dead slugs per pot [2, 4]: 0.3 | Mean number of plants present per pot [2, 4]: 5.3 | Mean number fecal pellets per pot [2, 5]: 106 | Mean number of damaged seeds per pot [2, 5]: 37.0 | Mean number of dead slugs per pot [2, 5]: 0.3 | Mean number of plants present per pot [2, 5]: 1.0 | Mean number fecal pellets per pot [2, 6]: 139 | Mean number of damaged seeds per pot [2, 6]: 37.0 | Mean number of dead slugs per pot [2, 6]: 0.3 | Mean number of plants present per pot [2, 6]: 1.3 | Mean number fecal pellets per pot [2, 7]: 156 | Mean number of damaged seeds per pot [2, 7]: 38.0 | Mean number of dead slugs per pot [2, 7]: 0.5 | Mean number of plants present per pot [2, 7]: 0.8 | number of utilizable plants after 14 days ([2]; 10 ml formulated per kg seed): 2.3 | percentage of damaged seeds after 14 days ([2]; 10 ml formulated per kg seed): 86% | Mean number of damaged seeds per pot [2, 8]: 4.0 | Mean number of dead slugs per pot [2, 8]: 0 | Mean number fecal pellets per pot [2, 9]: 32 | Mean number of damaged seeds per pot [2, 9]: 13.0 | Mean number of dead slugs per pot [2, 9]: 0 | Mean number of plants present per pot [2, 9]: 4.8 | Mean number fecal pellets per pot [2, 10]: 93 | Mean number of damaged seeds per pot [2, 10]: 30.5 | Mean number of dead slugs per pot [2, 10]: 0 | Mean number of plants present per pot [2, 10]: 2.8 | Mean number fecal pellets per pot [2, 11]: 130 | Mean number of damaged seeds per pot [2, 11]: 32.5 | Mean number of dead slugs per pot [2, 11]: 0.3 | Mean number of plants present per pot [2, 11]: 3.3 | Mean number fecal pellets per pot [2, 12]: 138 | Mean number of damaged seeds per pot [2, 12]: 34.5 | Mean number of dead slugs per pot [2, 12]: 0.3 | Mean number of plants present per pot [2, 12]: 3.8 | differences in the number of damaged seeds ([2]; Example 1, dosages tested): did not result in significant differences | protection / slug controlling effect (conclusion) ([2]; Example 1, winter wheat seed treatment, dosages tested): no sufficient protection to the plants
